Experimental data from PubChem BioAssay AID1745844 (Carcinogenic Potency Database (CPDB), 2022).
Active and inactive are the calls of the source. No rule for the calls is given here.

Test system: rodent lifetime carcinogenesis bioassay, tumor incidence TD50
Assay: chronic cancer bioassays in animals – CPDB, compiled studies (AID 1745844)

## COC(=O)C1=C(C)NC(C)=C(C(=O)OCC(C)(C)CN(C)Cc2ccccc2)C1c1cc([N+](=O)[O-])ccc1F (stereo not given)
rat, strain Fischer 344, females, in feed, site: liver, lesion: one or several types, types not named, dosed 104 weeks, study length 104 weeks
  carcinogen call: negative (inactive)
rat, strain Fischer 344, males, in feed, site: all sites, lesion: mononuclear-cell leukemia, dosed 104 weeks, study length 104 weeks
  carcinogen call: negative (inactive)
rat, strain Fischer 344, males, in feed, site: liver, lesion: hepatocellular adenoma, dosed 104 weeks, study length 104 weeks
  carcinogen call: negative (inactive)

## FC(Cl)C(F)(F)F (stereo not given)
rat, strain Charles River CD (Sprague-Dawley), females, inhaled, site: mammary gland, lesion: fibroadenoma, dosed 104 weeks, study length 104 weeks
  TD50: 56300 mg/kg/day (inactive)
rat, strain Charles River CD (Sprague-Dawley), females, inhaled, site: mammary gland, lesion: several types, types named in the paper, dosed 104 weeks, study length 104 weeks
  TD50: 54000 mg/kg/day (inactive)

## CC(C)OC(=O)COc1ccc(Cl)cc1Cl
mouse, strain B6AKF1, females, oral dosing, site: any site (literature study), lesion: several types, types named in the paper, dosed 76 weeks, study length 76 weeks
  TD50: 83.2 mg/kg/day (inactive)
mouse, strain B6AKF1, females, oral dosing, site: liver, lesion: hepatocellular carcinoma, dosed 76 weeks, study length 76 weeks
  TD50: 94.7 mg/kg/day (inactive)
mouse, strain B6AKF1, females, oral dosing, site: lung, lesion: adenoma, dosed 76 weeks, study length 76 weeks
  carcinogen call: negative (inactive)
mouse, strain B6AKF1, males, oral dosing, site: any site (literature study), lesion: several types, types named in the paper, dosed 76 weeks, study length 76 weeks
  carcinogen call: negative (inactive)
mouse, strain B6AKF1, males, oral dosing, site: liver, lesion: hepatoma, dosed 76 weeks, study length 76 weeks
  carcinogen call: negative (inactive)
mouse, strain B6AKF1, males, oral dosing, site: lung, lesion: adenoma, dosed 76 weeks, study length 76 weeks
  carcinogen call: negative (inactive)
mouse, strain B6C3F1, females, oral dosing, site: any site (literature study), lesion: several types, types named in the paper, dosed 76 weeks, study length 76 weeks
  TD50: 48.7 mg/kg/day (inactive)
mouse, strain B6C3F1, females, oral dosing, site: liver, lesion: hepatoma, dosed 76 weeks, study length 76 weeks
  TD50: 100 mg/kg/day (inactive)
mouse, strain B6C3F1, females, oral dosing, site: lung, lesion: adenoma, dosed 76 weeks, study length 76 weeks
  TD50: 100 mg/kg/day (inactive)
mouse, strain B6C3F1, males, oral dosing, site: any site (literature study), lesion: several types, types named in the paper, dosed 76 weeks, study length 76 weeks
  TD50: 16.4 mg/kg/day (inactive)
mouse, strain B6C3F1, males, oral dosing, site: liver, lesion: hepatoma, dosed 76 weeks, study length 76 weeks
  TD50: 93.6 mg/kg/day (inactive)
mouse, strain B6C3F1, males, oral dosing, site: lung, lesion: adenoma, dosed 76 weeks, study length 76 weeks
  TD50: 21.3 mg/kg/day (inactive)

## CN(N=O)C(=O)Nc1nc2ccccc2s1
rat, strain Wistar, both sexes, by gavage, site: forestomach, lesion: papilloma, dosed 51 weeks, study length 58 weeks
  TD50: 3.75 mg/kg/day
rat, strain Wistar, both sexes, by gavage, site: forestomach, lesion: several types, types named in the paper, dosed 51 weeks, study length 58 weeks
  TD50: 1.13 mg/kg/day
rat, strain Wistar, both sexes, by gavage, site: forestomach, lesion: squamous-cell carcinoma, dosed 51 weeks, study length 58 weeks
  TD50: 1.48 mg/kg/day
rat, strain Wistar, both sexes, by gavage, site: liver, lesion: several types, types named in the paper, dosed 51 weeks, study length 58 weeks
  TD50: 11.3 mg/kg/day

## CC(O)CN(CC(O)CO)N=O (stereo not given)
hamster, strain Syrian Golden, females, by gavage, site: forestomach, lesion: several types, types named in the paper, dosed 41 weeks, study length 75 weeks
  TD50: 1.59 mg/kg/day
hamster, strain Syrian Golden, females, by gavage, site: forestomach, lesion: squamous-cell papilloma, dosed 41 weeks, study length 75 weeks
  TD50: 1.59 mg/kg/day
hamster, strain Syrian Golden, females, by gavage, site: liver, lesion: cholangioadenoma, dosed 41 weeks, study length 75 weeks
  TD50: 32.6 mg/kg/day
rat, strain Fischer 344, females, in drinking water, site: esophagus, lesion: carcinoma, dosed 37 weeks, study length 85 weeks
  TD50: 0.117 mg/kg/day
rat, strain Fischer 344, females, in drinking water, site: esophagus, lesion: several types, types named in the paper, dosed 37 weeks, study length 85 weeks
  TD50: 0.0535 mg/kg/day
rat, strain Fischer 344, females, in drinking water, site: forestomach, lesion: several types, types named in the paper, dosed 37 weeks, study length 85 weeks
  TD50: 0.178 mg/kg/day
rat, strain Fischer 344, females, in drinking water, site: liver, lesion: hepatocellular carcinoma, dosed 37 weeks, study length 85 weeks
  TD50: 2.4 mg/kg/day
rat, strain Fischer 344, females, in drinking water, site: tongue, lesion: several types, types named in the paper, dosed 37 weeks, study length 85 weeks
  TD50: 0.0888 mg/kg/day
rat, strain Fischer 344, females, in drinking water, site: tongue, lesion: squamous-cell carcinoma, dosed 37 weeks, study length 85 weeks
  TD50: 0.241 mg/kg/day
